Values quoted from earlier work in paper PMC6962532 (Journal of the American Chemical Society, 2020).

How the values were obtained:
AgrC-I = details: for activity of native AIP signal on AgrC-I: cross-group interaction
AgrC-II = details: cross-group interaction
AgrC-III = details: cross-group interaction

A-S-A-(C-A-A-Y-F) [AAA]
IC50 value (AgrC-I; AgrC-I, in words): single-digit nanomolar

D-S-A-(C-A-S-Y-F) [AIP-I V3A]
antagonism potency relative to t-AIP-I (AgrC-I; AgrC-I): approximately four-fold more potent

D-S-V-(C-A-S-Y-F) [AIP-I]
activity of native AIP signal on AgrC-II (AgrC-II): inhibits
activity of native AIP signal on AgrC-III (AgrC-III): inhibits

N-A-A-K-Y-N-P-(C-A-S-Y-L) [AIP-III]
activity of native AIP signal on AgrC-I (AgrC-I): inhibit

N-A-S-K-Y-N-P-(C-S-N-Y-L) [AIP-II]
activity of native AIP signal on AgrC-I (AgrC-I): inhibit
